Source: patent US20050152857A1, “Method and preparation for reducing sunburn cell formation in skin” (PCR Technology Holdings, LC, priority 2004, published 2005)

What was measured:
[1] = tested on: sensitivity of skin to UV light; conditions: cited from earlier work
[2] = tested on: sunburn cells in human skin; experiment: 2-week human sun burn cell assay study with glycolic acid compositions (Formulas 4-5, 1.5 MED solar simulator); format: in vivo; conditions: compared with normal, untreated skin, UV-exposed
Excerpt: The idebenone-containing Formula 4 and the placebo Formula 5 of Example 3 were applied to human skin in a 2-week human sun burn cell assay study.
The panel composition was six different healthy adult volunteers between the ages of 18 and 53. All were in excellent health, and without any significant internal or dermatological diseases. The subjects were carefully screened to insure they were not taking any medications.
The subjects were given detailed instructions to avoid any direct exposure to sunlight and to minimize any incidental exposure to their backs for the entire duration of the study. […]
The light source used was a 150 watt xenon arc solar simulator equipped with a UV reflecting diachronic mirror and a 1 mm thick Schott WG-320 filter to produce simulation of the solar spectrum. […] Total irradiance at skin level was measured with a calibrated Eppley Thermopile and the UVB component was monitored with a UVB radiometer (International Light Inc, Newburyport, Mass.). […]
Two days prior to the end of the study, the MED (minimal erythema dose) for each subject was determined by exposing several normal untreated skin sites over the midback area to a series of exposures in 25% dose increments from the solar simulator. […] The MED was recorded in the appropriate case record form. […]

Row | SMILES | sensitivity of skin to UV light, sunburn cell induction ([1]; 10% glycolic acid (pH 3.5) once daily, 6 days per week, 4 weeks, 1.5 MED, 29 Caucasian subjects) | duration of photosensitivity after terminating treatments ([1]; 10% glycolic acid (pH 3.5), after 4 weeks of treatment) | prevention of the increase in sun sensitivity / sunburn cell formation produced by 10 wt. % glycolic acid [2]
1 | O=C(O)CO [glycolic acid] | enhanced sensitivity to UV light, including increased sunburn cell induction | reversed within a week of terminating treatments | 
2 | COC1=C(OC)C(=O)C(CCCCCCCCCCO)=C(C)C1=O [idebenone, 6-(10-hydroxydecyl)-2,3-dimethoxy-5-methyl-1,4-benzoquinone] |  |  | prevented the increase in formation of sunburn cells
